Source: ChEMBL document CHEMBL5465560, “Selectivity Literature for EUbOPEN Chemogenomic Library” (2024)
Values belong to the compound of their own block, whether it stands above or below them.

What was measured:
[1] = target: T1, Tyrosine-protein kinase Mer (Homo sapiens) (UniProt Q12866); experiment: Selectivity interaction (KinomeScan (DiscoverX)) EUB0000607a MERTK; settings: at 10 µM
T1 sequence (whole entry): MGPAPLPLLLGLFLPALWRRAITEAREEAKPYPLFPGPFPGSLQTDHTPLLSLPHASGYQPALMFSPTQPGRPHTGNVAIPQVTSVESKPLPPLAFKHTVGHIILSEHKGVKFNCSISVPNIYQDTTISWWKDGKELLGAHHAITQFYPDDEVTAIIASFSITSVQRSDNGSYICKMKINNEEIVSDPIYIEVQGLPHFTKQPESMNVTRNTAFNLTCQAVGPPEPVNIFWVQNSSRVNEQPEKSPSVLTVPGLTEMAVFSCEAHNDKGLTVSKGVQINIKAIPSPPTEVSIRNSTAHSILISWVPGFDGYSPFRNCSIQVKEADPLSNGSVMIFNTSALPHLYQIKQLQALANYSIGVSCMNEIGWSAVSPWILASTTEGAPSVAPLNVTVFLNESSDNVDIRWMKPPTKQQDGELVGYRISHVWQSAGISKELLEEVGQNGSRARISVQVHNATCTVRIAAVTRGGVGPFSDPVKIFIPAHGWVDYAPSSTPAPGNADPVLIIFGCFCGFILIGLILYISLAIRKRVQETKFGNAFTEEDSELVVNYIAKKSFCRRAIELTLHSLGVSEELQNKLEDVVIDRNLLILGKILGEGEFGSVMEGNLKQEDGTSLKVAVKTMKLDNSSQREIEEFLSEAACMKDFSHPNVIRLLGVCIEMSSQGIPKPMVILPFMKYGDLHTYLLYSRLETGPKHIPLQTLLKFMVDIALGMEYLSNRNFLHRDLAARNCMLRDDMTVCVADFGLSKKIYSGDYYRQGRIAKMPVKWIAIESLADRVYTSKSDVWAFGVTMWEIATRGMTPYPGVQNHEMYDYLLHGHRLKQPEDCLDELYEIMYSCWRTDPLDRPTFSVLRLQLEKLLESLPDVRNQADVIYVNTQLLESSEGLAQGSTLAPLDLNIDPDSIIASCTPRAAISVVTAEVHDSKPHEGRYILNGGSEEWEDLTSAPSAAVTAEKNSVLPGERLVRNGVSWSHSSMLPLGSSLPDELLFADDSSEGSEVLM

[2] = target: T2, Mitogen-activated protein kinase kinase kinase 7 (Homo sapiens) (UniProt O43318); experiment: Selectivity interaction (Upstate Kinase Profiler service (Millipore)) EUB0000056c MAP3K7; settings: at 1 µM
T2 sequence (whole entry): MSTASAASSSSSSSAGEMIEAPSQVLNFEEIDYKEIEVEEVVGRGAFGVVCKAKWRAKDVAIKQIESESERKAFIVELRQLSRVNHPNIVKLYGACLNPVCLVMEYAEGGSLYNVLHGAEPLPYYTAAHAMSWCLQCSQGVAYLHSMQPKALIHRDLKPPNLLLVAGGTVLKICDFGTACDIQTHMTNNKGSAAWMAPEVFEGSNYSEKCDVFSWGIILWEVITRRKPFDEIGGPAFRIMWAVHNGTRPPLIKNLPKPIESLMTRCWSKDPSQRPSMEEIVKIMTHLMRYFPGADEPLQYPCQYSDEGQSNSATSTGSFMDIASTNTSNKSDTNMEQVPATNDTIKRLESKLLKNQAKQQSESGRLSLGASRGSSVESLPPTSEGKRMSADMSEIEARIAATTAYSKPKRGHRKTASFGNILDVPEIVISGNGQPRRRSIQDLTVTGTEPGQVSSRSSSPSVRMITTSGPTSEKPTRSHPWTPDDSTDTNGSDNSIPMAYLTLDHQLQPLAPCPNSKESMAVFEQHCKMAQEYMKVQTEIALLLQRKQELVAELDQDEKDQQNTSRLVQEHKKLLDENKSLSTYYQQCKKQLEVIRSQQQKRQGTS

[3] = target: Cyclin-dependent kinase 10 (Homo sapiens) (UniProt Q15131); experiment: Selectivity interaction (ActivX KiNativ screen (kinase selectivity in THP-1 cell lysates)) EUB0000639a CDK10; type: subcellular; settings: lysate
[4] = target: Serine/threonine-protein kinase 24 (Homo sapiens) (UniProt Q9Y6E0); experiment: Selectivity interaction (ProQinase) EUB0000171b STK24
[5] = target: Tyrosine-protein kinase JAK2 (Homo sapiens, UniProt O60674); experiment: Selectivity interaction (Kinase counterscreening (biochemical assay)) EUB0000604a JAK2
[6] = target: Ribosomal protein S6 kinase alpha-5 (Homo sapiens) (UniProt O75582); experiment: Selectivity interaction (Millipore kinase profiler) EUB0000124b RPS6KA5; settings: at 10 µM
[7] = target: Vascular endothelial growth factor receptor 3 (Homo sapiens, UniProt P35916); experiment: Selectivity interaction (Ambit KINOMEscan and KiNATiv profiling in Jurkat cells) EUB0000090b FLT4; type: cell-based; settings: at 1 µM
[8] = target: Tyrosine-protein kinase Fer (Homo sapiens) (UniProt P16591); experiment: Selectivity interaction (Kinase panel (KiNativ target engagement assay in Jurkat cells)) EUB0001635a FER; type: cell-based; settings: Selectivity number of off-targets 0.0, Selectivity number of targets 233.0, Source Knowledge https://www.sciencedirect.com/science/article/pii/S2451945619300674?via%3Dihub, at 1 µM
[9] = target: Serine/threonine-protein kinase PAK 6 (Homo sapiens) (UniProt Q9NQU5); settings: at 10 µM
[10] = target: T3, Mitogen-activated protein kinase kinase kinase 3 (Homo sapiens) (UniProt Q99759); experiment: Selectivity interaction (ActivX KiNativ screen (ex vivo kinase selectivity in human PBMCs)) EUB0001619a MAP3K3; type: cell-based; settings: PBMC, at 1 µM
T3 sequence (whole entry): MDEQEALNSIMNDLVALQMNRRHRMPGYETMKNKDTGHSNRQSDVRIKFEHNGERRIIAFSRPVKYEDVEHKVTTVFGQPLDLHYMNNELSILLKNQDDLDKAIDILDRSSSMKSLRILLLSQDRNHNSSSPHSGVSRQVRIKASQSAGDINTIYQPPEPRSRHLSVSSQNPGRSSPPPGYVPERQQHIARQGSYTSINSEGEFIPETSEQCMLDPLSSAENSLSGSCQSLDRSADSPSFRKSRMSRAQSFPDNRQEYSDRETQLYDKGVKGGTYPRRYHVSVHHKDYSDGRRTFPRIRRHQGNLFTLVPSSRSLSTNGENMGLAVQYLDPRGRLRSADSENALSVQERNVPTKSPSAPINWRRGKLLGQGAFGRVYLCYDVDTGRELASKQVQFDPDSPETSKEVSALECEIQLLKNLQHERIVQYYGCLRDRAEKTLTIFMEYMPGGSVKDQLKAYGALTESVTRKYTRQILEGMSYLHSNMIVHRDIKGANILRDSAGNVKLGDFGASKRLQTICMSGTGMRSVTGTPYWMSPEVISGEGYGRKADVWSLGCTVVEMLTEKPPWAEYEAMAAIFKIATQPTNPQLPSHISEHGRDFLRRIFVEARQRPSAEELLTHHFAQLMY

Cyclin-dependent kinase 10 (Homo sapiens), sequence (Q15131 whole entry): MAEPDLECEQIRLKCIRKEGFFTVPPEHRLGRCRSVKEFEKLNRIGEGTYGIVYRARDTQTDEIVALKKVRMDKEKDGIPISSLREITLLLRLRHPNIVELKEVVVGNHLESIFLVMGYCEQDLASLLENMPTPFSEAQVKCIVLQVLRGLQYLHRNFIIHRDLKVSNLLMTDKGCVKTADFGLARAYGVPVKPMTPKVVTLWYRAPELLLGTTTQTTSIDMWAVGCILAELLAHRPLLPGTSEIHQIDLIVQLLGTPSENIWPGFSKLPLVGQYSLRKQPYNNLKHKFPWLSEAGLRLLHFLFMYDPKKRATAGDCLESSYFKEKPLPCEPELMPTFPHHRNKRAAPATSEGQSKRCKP
Serine/threonine-protein kinase 24 (Homo sapiens), sequence (Q9Y6E0 whole entry, looked up): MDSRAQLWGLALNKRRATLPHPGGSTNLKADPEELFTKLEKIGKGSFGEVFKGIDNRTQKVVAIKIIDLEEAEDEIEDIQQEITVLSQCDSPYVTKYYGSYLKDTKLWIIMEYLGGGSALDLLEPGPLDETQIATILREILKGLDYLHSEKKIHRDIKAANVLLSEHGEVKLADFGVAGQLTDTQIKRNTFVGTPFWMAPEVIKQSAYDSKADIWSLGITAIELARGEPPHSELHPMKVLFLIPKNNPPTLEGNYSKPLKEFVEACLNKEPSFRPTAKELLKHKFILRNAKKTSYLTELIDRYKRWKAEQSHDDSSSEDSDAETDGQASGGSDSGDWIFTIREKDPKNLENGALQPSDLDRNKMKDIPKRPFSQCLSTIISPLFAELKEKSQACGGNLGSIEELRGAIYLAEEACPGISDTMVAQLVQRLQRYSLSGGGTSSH
Serine/threonine-protein kinase PAK 6 (Homo sapiens), sequence (Q9NQU5 whole entry, looked up): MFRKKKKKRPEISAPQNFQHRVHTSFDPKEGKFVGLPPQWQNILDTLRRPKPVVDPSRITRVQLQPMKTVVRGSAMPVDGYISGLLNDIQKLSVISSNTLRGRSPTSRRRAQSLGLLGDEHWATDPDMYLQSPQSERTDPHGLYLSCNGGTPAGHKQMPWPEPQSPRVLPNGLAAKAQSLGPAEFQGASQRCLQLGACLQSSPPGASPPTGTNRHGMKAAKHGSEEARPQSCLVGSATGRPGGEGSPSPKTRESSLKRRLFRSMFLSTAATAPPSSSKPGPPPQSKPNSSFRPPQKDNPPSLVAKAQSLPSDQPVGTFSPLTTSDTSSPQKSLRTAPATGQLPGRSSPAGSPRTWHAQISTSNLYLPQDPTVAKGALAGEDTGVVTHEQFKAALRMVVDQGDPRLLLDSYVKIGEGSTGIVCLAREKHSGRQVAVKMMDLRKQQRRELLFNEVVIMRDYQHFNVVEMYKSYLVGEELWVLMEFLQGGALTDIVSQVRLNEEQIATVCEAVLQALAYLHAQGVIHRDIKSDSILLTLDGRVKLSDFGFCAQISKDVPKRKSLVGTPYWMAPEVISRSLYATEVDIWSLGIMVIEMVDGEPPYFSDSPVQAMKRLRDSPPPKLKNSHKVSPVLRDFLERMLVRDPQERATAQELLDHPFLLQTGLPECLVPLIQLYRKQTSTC
Tyrosine-protein kinase JAK2, sequence (O60674 whole entry): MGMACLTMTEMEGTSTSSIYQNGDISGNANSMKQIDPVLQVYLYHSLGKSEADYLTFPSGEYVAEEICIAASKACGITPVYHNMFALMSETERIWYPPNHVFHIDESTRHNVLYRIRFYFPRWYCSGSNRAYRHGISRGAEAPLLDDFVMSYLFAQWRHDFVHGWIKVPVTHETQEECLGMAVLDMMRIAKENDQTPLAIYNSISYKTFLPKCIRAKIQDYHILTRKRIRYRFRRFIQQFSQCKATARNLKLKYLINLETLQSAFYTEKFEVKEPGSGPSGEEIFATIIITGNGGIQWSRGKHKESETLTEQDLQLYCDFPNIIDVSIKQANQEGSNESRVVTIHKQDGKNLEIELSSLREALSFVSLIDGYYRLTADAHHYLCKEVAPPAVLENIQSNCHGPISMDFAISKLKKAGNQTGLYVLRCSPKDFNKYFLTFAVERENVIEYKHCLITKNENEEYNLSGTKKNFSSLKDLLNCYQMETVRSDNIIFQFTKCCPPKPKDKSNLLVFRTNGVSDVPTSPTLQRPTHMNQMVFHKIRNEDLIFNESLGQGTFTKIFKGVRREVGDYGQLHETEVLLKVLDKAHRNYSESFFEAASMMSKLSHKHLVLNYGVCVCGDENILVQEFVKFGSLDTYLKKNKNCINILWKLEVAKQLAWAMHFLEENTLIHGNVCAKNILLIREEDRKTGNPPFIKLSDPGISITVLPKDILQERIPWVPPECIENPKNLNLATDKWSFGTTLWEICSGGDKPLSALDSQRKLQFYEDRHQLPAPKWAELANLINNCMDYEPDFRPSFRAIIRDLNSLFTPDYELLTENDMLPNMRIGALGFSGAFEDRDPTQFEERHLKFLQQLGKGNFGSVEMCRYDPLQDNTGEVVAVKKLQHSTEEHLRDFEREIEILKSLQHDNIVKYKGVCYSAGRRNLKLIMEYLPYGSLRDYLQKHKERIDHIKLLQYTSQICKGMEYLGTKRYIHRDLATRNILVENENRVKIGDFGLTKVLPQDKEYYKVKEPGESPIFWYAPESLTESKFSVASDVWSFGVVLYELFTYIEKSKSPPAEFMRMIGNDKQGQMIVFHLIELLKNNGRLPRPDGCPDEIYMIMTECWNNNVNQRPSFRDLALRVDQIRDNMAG
Vascular endothelial growth factor receptor 3, sequence (P35916 whole entry): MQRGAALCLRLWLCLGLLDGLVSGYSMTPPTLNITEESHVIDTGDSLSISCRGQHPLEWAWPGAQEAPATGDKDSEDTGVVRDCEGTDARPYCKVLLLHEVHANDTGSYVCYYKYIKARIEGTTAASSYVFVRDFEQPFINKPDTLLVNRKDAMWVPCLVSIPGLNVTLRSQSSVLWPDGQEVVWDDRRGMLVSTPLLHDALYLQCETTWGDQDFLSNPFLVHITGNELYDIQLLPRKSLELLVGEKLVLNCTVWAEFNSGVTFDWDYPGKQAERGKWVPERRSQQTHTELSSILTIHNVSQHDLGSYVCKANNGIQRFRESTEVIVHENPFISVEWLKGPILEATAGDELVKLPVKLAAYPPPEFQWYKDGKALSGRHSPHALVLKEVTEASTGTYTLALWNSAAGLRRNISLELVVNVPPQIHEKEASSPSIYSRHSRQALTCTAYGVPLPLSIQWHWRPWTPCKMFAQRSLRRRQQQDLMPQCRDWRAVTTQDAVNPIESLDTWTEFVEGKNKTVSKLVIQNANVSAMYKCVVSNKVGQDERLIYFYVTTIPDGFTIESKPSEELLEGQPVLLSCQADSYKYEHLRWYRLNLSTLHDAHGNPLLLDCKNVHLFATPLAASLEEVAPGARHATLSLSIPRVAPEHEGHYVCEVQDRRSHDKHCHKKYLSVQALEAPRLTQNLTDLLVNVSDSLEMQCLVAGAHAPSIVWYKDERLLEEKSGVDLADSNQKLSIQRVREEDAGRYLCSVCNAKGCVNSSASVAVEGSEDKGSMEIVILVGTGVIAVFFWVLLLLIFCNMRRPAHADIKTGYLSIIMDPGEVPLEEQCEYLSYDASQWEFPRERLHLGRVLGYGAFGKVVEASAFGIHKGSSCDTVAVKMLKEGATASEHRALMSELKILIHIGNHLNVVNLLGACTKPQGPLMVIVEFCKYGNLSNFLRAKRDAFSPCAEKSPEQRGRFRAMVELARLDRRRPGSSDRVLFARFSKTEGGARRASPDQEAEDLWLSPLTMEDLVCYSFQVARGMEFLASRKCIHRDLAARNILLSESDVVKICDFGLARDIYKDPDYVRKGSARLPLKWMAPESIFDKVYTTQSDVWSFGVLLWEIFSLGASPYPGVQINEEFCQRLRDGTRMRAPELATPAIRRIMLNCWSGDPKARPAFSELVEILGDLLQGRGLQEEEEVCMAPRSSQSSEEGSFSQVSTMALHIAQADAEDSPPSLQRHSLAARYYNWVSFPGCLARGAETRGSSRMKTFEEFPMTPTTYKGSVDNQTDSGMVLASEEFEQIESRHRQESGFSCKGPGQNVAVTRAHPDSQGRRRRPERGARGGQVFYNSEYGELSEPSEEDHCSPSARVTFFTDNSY
Tyrosine-protein kinase Fer (Homo sapiens), sequence (P16591 whole entry, looked up): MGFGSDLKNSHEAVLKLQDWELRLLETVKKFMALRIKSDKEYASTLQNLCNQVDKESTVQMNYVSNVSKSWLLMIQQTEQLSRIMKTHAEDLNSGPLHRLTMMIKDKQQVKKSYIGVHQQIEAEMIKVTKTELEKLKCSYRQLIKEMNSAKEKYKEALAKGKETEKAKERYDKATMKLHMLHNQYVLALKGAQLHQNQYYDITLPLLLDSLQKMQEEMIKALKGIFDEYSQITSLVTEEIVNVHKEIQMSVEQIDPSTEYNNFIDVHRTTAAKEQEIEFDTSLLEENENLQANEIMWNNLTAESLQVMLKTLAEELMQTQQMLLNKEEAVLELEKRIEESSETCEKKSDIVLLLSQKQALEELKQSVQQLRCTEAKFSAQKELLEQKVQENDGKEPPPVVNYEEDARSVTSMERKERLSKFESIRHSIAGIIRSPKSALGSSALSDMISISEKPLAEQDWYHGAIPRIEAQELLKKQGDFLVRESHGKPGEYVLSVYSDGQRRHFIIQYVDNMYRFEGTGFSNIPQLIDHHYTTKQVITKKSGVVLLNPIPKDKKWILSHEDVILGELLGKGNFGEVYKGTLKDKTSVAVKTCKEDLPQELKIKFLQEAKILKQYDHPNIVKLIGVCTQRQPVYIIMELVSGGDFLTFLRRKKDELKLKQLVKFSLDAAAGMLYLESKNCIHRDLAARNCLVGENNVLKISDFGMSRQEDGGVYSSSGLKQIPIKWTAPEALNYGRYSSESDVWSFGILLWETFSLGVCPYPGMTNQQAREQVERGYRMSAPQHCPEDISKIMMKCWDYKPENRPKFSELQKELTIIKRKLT

Compound: CNC(=O)Nc1ccc(-c2nc(N3CC4CCC(C3)O4)c3cnn(C4CCC5(CC4)OCCO5)c3n2)cc1
% of control [1]: 87%

% of inhibition [2]: 6%
Compound: Cc1ccc(-c2ccc3c(ccc4sc5c(c43)NC[C@@H](C)NC5=O)n2)cn1

% of inhibition ([3]; at 0.01 µM): 0.5%
% of inhibition ([3]; at 0.04 µM): 6.6%
% of inhibition ([3]; at 0.2 µM): -14.2%
% of inhibition ([3]; at 1 µM): 6.3%
% of inhibition ([3]; at 5 µM): 19.6%
Compound: CC[C@@H]1[C@H](F)C(=O)N[C@@H]1COc1nccc2cc(C(N)=O)c(OC)cc12 [ZIMLOVISERTIB]

% of control ([4]; at 1 µM): 85%
% of control ([4]; at 5 µM): 89%
Compound: C=CC(=O)Nc1cccc(C(=O)Nc2ccc(Nc3cc(-c4[nH]c(SC)nc4C)ccn3)cc2)c1

Compound: Cc1cnc(Nc2ccc(F)cc2Cl)nc1-c1c[nH]c(C(=O)N[C@H](CO)c2cccc(Cl)c2)c1
Ki [5]: > 4 µM

% of control [6]: 111%
Compound: CC(=O)Nc1cccc(-n2c(=O)n(C3CC3)c(=O)c3c(Nc4ccc(I)cc4F)n(C)c(=O)c(C)c32)c1

Compound: CN(C)C/C=C/C(=O)Nc1ccc(C(=O)N2CCCC(Nc3ncc(Cl)c(-c4c[nH]c5ccccc45)n3)C2)cc1 (stereo not given)
% of control [7]: 70%

Compound: C=CC(=O)Nc1ccc(C(=O)Nc2[nH]nc3c2CN(C(=O)N[C@H](CN(C)C)c2ccccc2)C3(C)C)cc1
% of engagement [8]: -2.6%

Compound: Cc1cc([C@@H](C)Nc2ccccc2C(=O)O)c2nc(N3CCOCC3)cc(=O)n2c1 [AZD-6482]
% of control [9]: 93%

Compound: N#Cc1cccc(-c2c[nH]c3ncnc(N4CCOCC4)c23)c1
% of inhibition [10]: 7%
